From PMC5247395 (EJNMMI Research, 2017)

Key:
[1] = system: PC-3 PIP/flu tumor-bearing mice; experiment: Biodistribution in PC-3 PIP/flu tumor-bearing mice; details: i.v.; for PC-3 flu Tumor: PSMA^neg xenograft; for PC-3 PIP Tumor: PSMA^pos xenograft
Method: In vivo experiments were approved by the local veterinarian department and conducted in accordance with the Swiss law of animal protection. All mice were obtained from Charles River Laboratories (Sulzfeld, Germany), at the age of 5–6 weeks. Female, athymic nude Balb/c mice were subcutaneously inoculated with PC-3 PIP cells (6 × 10^6 cells in 100 μL Hank’s balanced salt solution (HBSS) with Ca^2+/Mg^2+) on the right shoulder and with PC-3 flu cells (5 × 10^6 cells in 100 μL HBSS with Ca^2+/Mg^2+) on the left shoulder 2 weeks before the performance of the experiments.
Mice were sacrificed at different time points post injection (p.i.) of the radioligands. Selected tissues and organs were collected, weighed and measured using a γ-counter. The results were decay-corrected and listed as a percentage of the injected activity per gram of tissue mass (% IA/g).

PSMA = target: T1, PSMA (Homo sapiens, UniProt Q04609); experiment: Saturation binding assay on PC-3 PIP cells (PSMA affinity, KD); details: for Kd: 30 min at 4 °C, saturation binding; for Relative PSMA-binding affinity: inverse molar ratio of average KD values, ^177Lu-PSMA-617 set to 1
T1 construct: expressed in transfected cells; host or cells: PC-3 PIP cells (PSMA-positive subline of human PC-3 prostate cancer cells), provided by Prof; Martin Pomper, Johns Hopkins
T1 sequence (Q04609 whole entry): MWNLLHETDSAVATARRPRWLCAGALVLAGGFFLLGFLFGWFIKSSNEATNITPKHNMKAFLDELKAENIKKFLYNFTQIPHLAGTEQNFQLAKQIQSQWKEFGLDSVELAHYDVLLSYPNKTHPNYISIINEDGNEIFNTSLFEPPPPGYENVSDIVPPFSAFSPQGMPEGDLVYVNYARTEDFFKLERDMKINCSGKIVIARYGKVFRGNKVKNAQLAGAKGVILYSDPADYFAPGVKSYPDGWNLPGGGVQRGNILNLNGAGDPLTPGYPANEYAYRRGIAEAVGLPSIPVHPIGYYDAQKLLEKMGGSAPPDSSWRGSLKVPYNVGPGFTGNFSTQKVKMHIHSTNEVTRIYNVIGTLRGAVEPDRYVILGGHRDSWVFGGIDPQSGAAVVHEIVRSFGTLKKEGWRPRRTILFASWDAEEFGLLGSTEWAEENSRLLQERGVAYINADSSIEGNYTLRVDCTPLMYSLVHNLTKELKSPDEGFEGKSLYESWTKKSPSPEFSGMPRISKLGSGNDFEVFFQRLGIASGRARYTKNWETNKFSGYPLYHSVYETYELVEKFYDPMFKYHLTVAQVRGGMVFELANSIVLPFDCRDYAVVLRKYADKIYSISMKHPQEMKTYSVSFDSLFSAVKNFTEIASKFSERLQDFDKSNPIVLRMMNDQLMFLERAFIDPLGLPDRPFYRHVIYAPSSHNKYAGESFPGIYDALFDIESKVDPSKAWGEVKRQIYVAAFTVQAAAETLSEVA
Method: Determination of the PSMA affinity was performed by saturation binding assays using PC-3 PIP cells and different concentrations of ^nat/44Sc-, ^nat/177Lu-, ^nat/68Ga-PSMA-617, or ^nat/68Ga-PSMA-11, respectively (Additional file 1).
Determination of the KD values was performed by saturation binding assays using PSMA^pos PC-3 PIP cells. After successful radiolabeling of the PSMA ligands, a 2.5-fold molar excess of the corresponding cold metal was added and the reaction mixture was incubated for another 10 min at 95 °C. Quality control was performed again after reaction of the radioligands with the “cold” metal as described in the main manuscript.
The cells were seeded in 48-well-plates (8 x 10^5 cells in 500 uL RPMI medium/well) allowing adhesion and growth overnight at 37 °C and 5% CO2. For the entire experiment, the well-plates were kept on ice. After removal of the supernatant, the cells were washed once with ice-cold PBS pH 7.4 prior to the addition of different concentrations (1 nM-2 µM) of either ^nat/44Sc-, ^nat/177Lu-, ^nat/67/68Ga-PSMA-617 or ^nat/67/68Ga-PSMA-11 in ice-cold RPMI medium without supplements. For the determination of non-specific binding, cell samples were incubated with 2-phosphonomethyl pentanedioic acid (2-PMPA, 200 μM). The well-plates were incubated for 30 min at 4 °C. Then, the supernatants were removed and the cells washed twice with ice-cold PBS followed by addition of NaOH (1 M, 600 µL) to each well. The cell suspensions were transferred to 4 mL tubes for measurement in a γ-counter (Wallac Wizard 1480, Perkin Elmer). The KD values were determined by plotting specific-binding (total binding minus unspecific binding) against the molar concentration of the added radioligands followed by nonlinear regression analysis using GraphPad Prism 7 software.

[2] = n-octanol/PBS distribution coefficient (shake-flask); type: physicochemical; details: n-octanol/PBS pH 7.4, shake-flask
Method: The distribution coefficients (logD values) of the radioligands were determined by a shake-flask method using liquid-liquid extraction followed by phase separation, as previously reported (Additional file 1). In brief, the PSMA ligands were labeled at a specific activity of 5 MBq/nmol. […] The vials were vortexed vigorously for 1 min and then centrifuged for 6 min for phase separation. The concentration of radioactivity in a defined volume of each layer was measured in a γ-counter (Perkin Elmer, Wallac Wizard 1480). The distribution coefficients were expressed as the logarithm of the ratio of counts per minute (cpm) measured in the n-octanol phase to the cpm measure in the PBS phase. The values are reported as the average of at least three independent measurements (± standard deviation, SD), each performed with five replicates. Data were analyzed for significance using a one-way ANOVA test (GraphPad Prism software, version 7). A p value of <0.05 was considered as statistically significant.

## O=C([O-])CN1CCN(CC(=O)[O-])CCN(CC(=O)NCC2CCC(C(=O)NC(Cc3ccc4ccccc4c3)C(=O)NCCCCC(NC(=O)NC(CCC(=O)O)C(=O)O)C(=O)O)CC2)CCN(CC(=O)[O-])CC1.[44Sc+3] (stereo not shown) [^44Sc-PSMA-617]
[1]; 15 min p.i.
  Blood: 6.76 ± 0.28 % IA/g
  Bone: 2.75 ± 0.73 % IA/g
  Heart: 2.79 ± 0.31 % IA/g
  Intestines: 1.89 ± 0.13 % IA/g
  Kidneys: 37.7 ± 0.82 % IA/g
  Liver: 1.98 ± 0.19 % IA/g
  Lung: 5.24 ± 0.30 % IA/g
  Muscle: 1.37 ± 0.11 % IA/g
  Salivary glands: 2.27 ± 0.22 % IA/g
  Spleen: 3.06 ± 0.18 % IA/g
  Stomach: 2.25 ± 0.16 % IA/g
  PC-3 flu Tumor: 2.14 ± 0.13 % IA/g
  PC-3 PIP Tumor: 36.5 ± 7.44 % IA/g
[1]; 30 min p.i.
  Blood: 2.52 ± 0.43 % IA/g
  Bone: 0.92 ± 0.19 % IA/g
  Heart: 1.31 ± 0.14 % IA/g
  Intestines: 1.05 ± 0.32 % IA/g
  Kidneys: 27.8 ± 3.29 % IA/g
  Liver: 0.80 ± 0.05 % IA/g
  Lung: 2.06 ± 0.25 % IA/g
  Muscle: 1.08 ± 0.20 % IA/g
  Salivary glands: 1.21 ± 0.14 % IA/g
  Spleen: 2.20 ± 0.67 % IA/g
  Stomach: 0.91 ± 0.17 % IA/g
  PC-3 flu Tumor: 1.51 ± 0.18 % IA/g
  PC-3 PIP Tumor: 44.4 ± 7.51 % IA/g
[1]; 2 h p.i.
  Bone: 0.26 ± 0.13 % IA/g
  Heart: 0.36 ± 0.04 % IA/g
  Intestines: 0.15 ± 0.04 % IA/g
  Kidneys: 5.97 ± 0.90 % IA/g
  Liver: 0.22 ± 0.03 % IA/g
  Lung: 0.37 ± 0.01 % IA/g
  Muscle: 0.36 ± 0.11 % IA/g
  Salivary glands: 0.36 ± 0.07 % IA/g
  Spleen: 0.81 ± 0.34 % IA/g
  Stomach: 0.20 ± 0.05 % IA/g
  PC-3 flu Tumor: 0.32 ± 0.16 % IA/g
  PC-3 PIP Tumor: 46.7 ± 4.36 % IA/g
[1]; 4 h p.i.
  PC-3 flu Tumor: 0.40 ± 0.08 % IA/g
  PC-3 PIP Tumor: 51.9 ± 4.05 % IA/g
[1]; 6 h p.i.
  Blood: 0.27 ± 0.02 % IA/g
  Bone: 0.65 ± 0.21 % IA/g
  Heart: 0.63 ± 0.10 % IA/g
  Intestines: 0.13 ± 0.01 % IA/g
  Kidneys: 3.09 ± 0.58 % IA/g
  Liver: 0.31 ± 0.02 % IA/g
  Lung: 0.51 ± 0.06 % IA/g
  Muscle: 0.94 ± 0.08 % IA/g
  Salivary glands: 0.75 ± 0.17 % IA/g
  Spleen: 0.90 ± 0.03 % IA/g
  Stomach: 0.39 ± 0.07 % IA/g
  PC-3 flu Tumor: 0.24 ± 0.02 % IA/g
  PC-3 PIP Tumor: 52.0 ± 8.42 % IA/g
PSMA
  Kd: 0.033 ± 0.012 µM
  Relative PSMA-binding affinity: 1.2
[2]
  LogD values: −4.21 ± 0.04

## O=C([O-])CN1CCN(CC(=O)[O-])CCN(CC(=O)NCC2CCC(C(=O)NC(Cc3ccc4ccccc4c3)C(=O)NCCCCC(NC(=O)NC(CCC(=O)O)C(=O)O)C(=O)O)CC2)CCN(CC(=O)[O-])CC1.[68Ga+3] (stereo not shown) [^68Ga-PSMA-617]
[1]; 15 min p.i.
  Blood: 6.88 ± 0.89 % IA/g
  Bone: 1.72 ± 0.06 % IA/g
  Heart: 2.61 ± 0.49 % IA/g
  Intestines: 1.55 ± 0.19 % IA/g
  Kidneys: 22.8 ± 0.81 % IA/g
  Liver: 4.74 ± 0.43 % IA/g
  Lung: 4.70 ± 0.09 % IA/g
  Muscle: 1.53 ± 0.24 % IA/g
  Salivary glands: 2.30 ± 0.37 % IA/g
  Spleen: 3.92 ± 0.28 % IA/g
  Stomach: 1.48 ± 0.09 % IA/g
  PC-3 flu Tumor: 2.30 ± 0.18 % IA/g
  PC-3 PIP Tumor: 28.7 ± 5.26 % IA/g
[1]; 30 min p.i.
  Blood: 3.46 ± 0.98 % IA/g
  Bone: 1.00 ± 0.17 % IA/g
  Heart: 1.47 ± 0.34 % IA/g
  Intestines: 0.98 ± 0.28 % IA/g
  Kidneys: 15.5 ± 3.46 % IA/g
  Liver: 2.91 ± 0.65 % IA/g
  Lung: 2.55 ± 0.51 % IA/g
  Muscle: 0.80 ± 0.10 % IA/g
  Salivary glands: 1.06 ± 0.23 % IA/g
  Spleen: 2.50 ± 0.82 % IA/g
  Stomach: 1.09 ± 0.40 % IA/g
  PC-3 flu Tumor: 1.23 ± 0.35 % IA/g
  PC-3 PIP Tumor: 48.5 ± 8.51 % IA/g
[1]; 2 h p.i.
  Blood: 0.14 ± 0.00 % IA/g
  Bone: 0.09 ± 0.02 % IA/g
  Heart: 0.09 ± 0.01 % IA/g
  Intestines: 0.12 ± 0.03 % IA/g
  Kidneys: 3.48 ± 0.18 % IA/g
  Liver: 1.60 ± 0.05 % IA/g
  Lung: 0.20 ± 0.00 % IA/g
  Muscle: 0.05 ± 0.01 % IA/g
  Salivary glands: 0.14 ± 0.03 % IA/g
  Spleen: 0.91 ± 0.14 % IA/g
  Stomach: 0.16 ± 0.11 % IA/g
  PC-3 flu Tumor: 0.18 ± 0.03 % IA/g
  PC-3 PIP Tumor: 55.8 ± 14.2 % IA/g
PSMA
  Kd: 0.072 ± 0.029 µM
  Relative PSMA-binding affinity: 0.5
[2]
  LogD values: −4.30 ± 0.10

## O=C([O-])CN1CCN(CC(=O)[O-])CCN(CC(=O)NCC2CCC(C(=O)N[C@@H](Cc3ccc4ccccc4c3)C(=O)NCCCC[C@H](NC(=O)N[C@@H](CCC(=O)O)C(=O)O)C(=O)O)CC2)CCN(CC(=O)[O-])CC1.[177Lu+3] (stereo partly shown) [^177Lu-PSMA-617]
[1]; 15 min p.i.
  Blood: 7.28 ± 0.32 % IA/g
  Bone: 2.03 ± 0.10 % IA/g
  Heart: 2.87 ± 0.17 % IA/g
  Intestines: 1.64 ± 0.12 % IA/g
  Kidneys: 30.8 ± 4.52 % IA/g
  Liver: 1.63 ± 0.27 % IA/g
  Lung: 4.76 ± 0.55 % IA/g
  Muscle: 1.78 ± 0.21 % IA/g
  Salivary glands: 2.11 ± 0.19 % IA/g
  Spleen: 2.85 ± 0.38 % IA/g
  Stomach: 1.70 ± 0.12 % IA/g
  PC-3 flu Tumor: 2.49 ± 0.45 % IA/g
  PC-3 PIP Tumor: 32.3 ± 3.54 % IA/g
[1]; 30 min p.i.
  Blood: 3.05 ± 0.81 % IA/g
  Bone: 1.07 ± 0.27 % IA/g
  Heart: 1.32 ± 0.28 % IA/g
  Intestines: 1.13 ± 0.45 % IA/g
  Kidneys: 22.6 ± 1.78 % IA/g
  Liver: 0.90 ± 0.15 % IA/g
  Lung: 2.51 ± 0.44 % IA/g
  Muscle: 0.75 ± 0.20 % IA/g
  Salivary glands: 1.01 ± 0.27 % IA/g
  Spleen: 1.55 ± 0.05 % IA/g
  Stomach: 0.98 ± 0.35 % IA/g
  PC-3 flu Tumor: 1.22 ± 0.32 % IA/g
  PC-3 PIP Tumor: 47.0 ± 3.52 % IA/g
[1]; 2 h p.i.
  Bone: 0.12 ± 0.07 % IA/g
  Heart: 0.06 ± 0.00 % IA/g
  Intestines: 0.14 ± 0.06 % IA/g
  Kidneys: 3.97 ± 0.56 % IA/g
  Liver: 0.13 ± 0.02 % IA/g
  Lung: 0.15 ± 0.03 % IA/g
  Muscle: 0.04 ± 0.02 % IA/g
  Salivary glands: 0.10 ± 0.03 % IA/g
  Spleen: 0.21 ± 0.03 % IA/g
  Stomach: 0.08 ± 0.02 % IA/g
  PC-3 flu Tumor: 0.13 ± 0.01 % IA/g
  PC-3 PIP Tumor: 45.8 ± 4.02 % IA/g
[1]; 4 h p.i.
  PC-3 flu Tumor: 0.08 ± 0.01 % IA/g
  PC-3 PIP Tumor: 56.0 ± 8.0 % IA/g
[1]; 6 h p.i.
  Blood: 0.02 ± 0.00 % IA/g
  Bone: 0.05 ± 0.01 % IA/g
  Heart: 0.03 ± 0.00 % IA/g
  Intestines: 0.03 ± 0.00 % IA/g
  Kidneys: 2.47 ± 0.28 % IA/g
  Liver: 0.09 ± 0.01 % IA/g
  Lung: 0.06 ± 0.02 % IA/g
  Muscle: 0.02 ± 0.01 % IA/g
  Salivary glands: 0.04 ± 0.00 % IA/g
  Spleen: 0.11 ± 0.01 % IA/g
  Stomach: 0.05 ± 0.01 % IA/g
  PC-3 flu Tumor: 0.06 ± 0.01 % IA/g
  PC-3 PIP Tumor: 55.4 ± 1.67 % IA/g
PSMA
  Kd: 0.039 ± 0.023 µM
  Relative PSMA-binding affinity: 1.0
[2]
  LogD values: −4.18 ± 0.06
